Reference: patent EP1080070B1, “ANTIANGIOGENIC DRUG TO TREAT CANCER, ARTHRITIS AND RETINOPATHY” (ABBOTT LABORATORIES, priority 1998, dated 1999)
Where a name gives a salt, the structure may show the parent alone.

What follows are compounds tested on Human Microvascular Endothelial Cells (HMVEC) (assay: Endothelial cell migration assay (modified Boyden chamber, bFGF-stimulated)). Settings: Homo sapiens, HMVEC; 200 nM test compound; bFGF in upper chamber, 4 hours at 37 °C; percent inhibition of migration compared to a positive control.
Type: cell-based
Experimental: The endothelial cell migration assay was performed essentially as described by Polverini, P.J. et al., Methods Enzymol, 198: 440-450 (1991). Briefly, Human Microvascular Endothelial Cells (HMVEC) were starved overnight in DMEM containing 0.1% bovine serum albumin (BSA). Cells were then harvested with trypsin and resuspended in DMEM with 0.1% BSA at a concentration of 1.5 x 10^6 cells/mL. Cells were added to the bottom of a 48-well modified Boyden chamber (Nucleopore Corporation, Cabin John, MD). The chamber was assembled and inverted, and cells were allowed to attach for 2 hours at 37 °C to polycarbonate chemotaxis membranes (5 µm pore size) that had been soaked in 0.1% gelatin overnight and dried. The chamber was then reinverted and basic fibroblast growth factor (bFGF) and test substances were added to the wells of the upper chamber (to a total volume of 50 µL); the apparatus was then incubated for 4 hours at 37 °C. Membranes were recovered, fixed and stained (DiffQuick, Fisher Scientific, Pittsburgh, PA) and the number of cells that had migrated to the upper chamber per 10 high power fields were counted. Background migration to DMEM +0.1% BSA was subtracted and the data reported as the number of cells migrated per 10 high power fields (400X) or when results from multiple experiments were combined, as the percent inhibition of migration compared to a positive control.

Q: For `COC(=O)c1ccc(NC(=O)[C@@H](CCCCN)NC(=O)OC(C)(C)C)cc1-c1cccc(O)c1` [Example 9, (R)-methyl 4-[[6-amino-2-[[(1,1-dimethylethoxy)carbonyl]amino]-1-oxohexyl]amino]-2-(3-hydroxyphenyl)benzoate], which inhibition at 0.2 µM is on record?
A: > 95%

Q: `COC(=O)c1ccc(NC(=O)[C@H](CCCCN)NC(C)=O)cc1-c1cccc(O)c1` [Example 14, (S)-methyl 4-[[2-(acetylamino)-6-amino-1-oxohexyl]amino]-2-(3-hydroxyphenyl)benzoate] was tested. Which inhibition at 0.2 µM did it give?
A: 60%

Q: With `CC(=O)N[C@@H](CCCCN)C(=O)Nc1ccc(C(=O)O)c(-c2cccc(O)c2)c1` [Example 15, (S)-4-[[2-(acetylamino)-6-amino-1-oxohexyl)amino]-2-(3-hydroxyphenyl)benzoic acid] as the compound, how does the inhibition at 0.2 µM read?
A: 64%

Q: For `CC(=O)NC(CCCCN)C(=O)Nc1ccc(C(=O)N[C@@H](CC(=O)O)C(N)=O)c(-c2cccc(O)c2)c1` (stereo partly drawn) [Example 16, (S)-N-[4-[[2-(acetylamino)-6-amino-1-oxohexyl]amino]-2-(3-hydroxyphenyl)benzoyl]-L-α-asparagine], which inhibition at 0.2 µM is on record?
A: 86%

Q: For `CC(C)(C)OC(=O)C[C@H](NC(=O)Cc1ccc(N)cc1)C(=O)OC(C)(C)C` [Example 19, N-[(4-aminophenyl)acetyl]-L-aspartic acid bis(1,1-dimethylethyl) ester], which inhibition at 0.2 µM is on record?
A: 32%

Q: With `CCOC(=O)Cc1ccc(NC(=O)[C@H](CCCCN)NC(=O)OC(C)(C)C)cc1` [Example 25, (S)-ethyl 4-[[6-amino-2-[[(1,1-dimethylethoxy)carbonyl]amino]-1-oxohexyl]amino]benzeneacetate monohydrochloride] as the compound, how does the inhibition at 0.2 µM read?
A: 38%

Q: How did the inhibition at 0.2 µM turn out when `COC(=O)c1ccc(NC(=O)[C@H](CCCCN)NC(=O)OC(C)(C)C)cc1-c1ccc(O)cc1` [Example 27, methyl 5-(((2S)-6-amino-2-((tert-butoxycarbonyl)amino)hexanoyl)amino)-4'-hydroxy(1,1'-biphenyl)-2-carboxylate] was run?
A: 28%

Q: Which inhibition at 0.2 µM does the source give for `CC(=O)N[C@@H](CCCCN)C(=O)Nc1ccc(C(=O)N[C@@H](CC(=O)O)C(N)=O)c(-c2ccc(O)cc2)c1` [Example 28, (3S)-3-(((5-(((2S)-2-(acetylamino)-6-aminohexanoyl)amino)-4'-hydroxy(1,1'-biphenyl)-2-yl)carbonyl)amino)-4-amino-4-oxobutanoic acid] here?
A: 59%

Q: `CC(C)(C)OC(=O)N[C@@H](CCCCN)C(=O)Nc1ccc(C(=O)O)c(-c2cccc(O)c2)c1` [Example 31, 5-(((2S)-6-amino-2-((tert-butoxycarbonyl)amino)hexanoyl)amino)-3'-hydroxy(1,1'-biphenyl)-2-carboxylic acid] was tested. Which inhibition at 0.2 µM did it give?
A: > 95%

Same assay, conditions: bFGF in upper chamber, 4 hours at 37 °C, percent inhibition of migration compared to a positive control

Q: How did the “% inhibition at 200 nM test compound” value turn out when `COC(=O)c1ccc(NC(=O)[C@@H](CCCCN)NC(=O)OC(C)(C)C)cc1-c1ccccc1O` [Example 10, (R)-methyl 4-[[6-amino-2-[[(1,1-dimethylethoxy)carbonyl]amino]-1-oxohexyl]amino]-2-(2-hydroxypheal)benzoate] was run?
A: 80%

Q: How did the “% inhibition at 200 nM test compound” value turn out when `COC(=O)c1ccc(NC(=O)[C@H](CCCCNC(=O)OCc2ccccc2)NC(C)=O)cc1-c1cccc(OCc2ccccc2)c1` [Example 12, (S)-methyl 4-[[2-(acetylamino)-6-[[(phenylmethoxy)carbonyl]amino]-1-oxohexyl]amino]2-[(3-(phenylmethoxy)phenyl benzoate] was run?
A: 29%

Q: With `CC(=O)NC(CCCCN)C(=O)Nc1ccc(C(=O)N[C@@H](CC(N)=O)C(=O)O)c(-c2ccccc2)c1` (some centres unmarked) [Example 17] as the compound, how does the “% inhibition at 200 nM test compound” value read?
A: >95%

Q: Which “% inhibition at 200 nM test compound” value does the source give for `CC(=O)NC(CCCCN)C(=O)Nc1ccc(C(=O)N[C@@H](CC(N)=O)C(=O)O)cc1` (stereo partly drawn) [Example 18, (S)-N-[4-[[2-(acelylainino)-6-amino-1-oxohexyl]amino]benzoyl]-L-α-asparagine] here?
A: 90%

Q: How did the “% inhibition at 200 nM test compound” value turn out when `NC(CCCCNC(=O)OCc1ccccc1)C(=O)Nc1ccc(CC(=O)N[C@@H](CC(=O)O)C(=O)O)cc1` (some centres unmarked) [Example 20] was run?
A: 34%
